Consider one molecule from US20130231305A1, “Method of Modulating Protein 14-3-3 Functionality By Facilitating or Inhibiting Phosphorylation” (Medvet Science Pty. Ltd., priority 2010, published 2013).

Test [1] concerns 14-3-3 isoforms. Kind of test: Phosphorylation of recombinant 14-3-3 isoforms by PKA catalytic subunit. The class given is biochemical. The following applies: 50 μM in 0.1% ethanol. The method, then:
FIG. 3 is an image depicting that sphingosine is required for the phosphorylation of multiple 14-3-3 isoforms in the third helix. (A) Primary sequence alignment of 14-3-3 isoforms in the third helix showing conservation of a Ser phosphorylation site (shown in bold). Asterisks indicate identical amino acids. (B) Recombinant 14-3-3 isoforms were incubated with PKA catalytic subunit in the presence of 50 μM sphingosine, dimethyl-sphingosine (DMS) or FTY 720 (FTY) delivered in 0.1% ethanol (EtOH). Phosphorylated 14-3-3s were detected by autoradiography. Gels were coomassie stained to show equal loading of 14-3-3 substrate.
Substrate 14-3-3 (either 0.5 μg of purified recombinant 14-3-3, a […] of fractions from gel filtration or immunoprecipitates from 14-3-3ζ-Myc transfected COS cells) were added to reaction mixture comprising 0.2 Units of the PKA catalytic subunit, in the presences or absence of sphingolipid (delivered in 0.1% v/v ethanol) in PICA reaction buffer (20 mM MOPS, pH 7.4, 20 mM β-glycerol phosphate, 4 mM EGTA, 1 mM Na3VO4, 60 mM MgCl2, 1 mM DTT, 500 μM ATP, 2.4 μCi [^32P]γ-ATP). Reactions were incubated at 37° C. for 15 minutes. After incubation, reactions were separated on 12.5% SDS-PAGE, coomassie stained and 14-3-3 phosphorylation analysed by autoradiography.

Test [2] relates to Jurkat cells. The test can be described thus: Jurkat cell apoptosis (TMRE staining, NucView caspase activity). In kind it is cell-based. The following applies: 2 μM. An excerpt: (A) Immunoblotting of lysates from either parental Jurkat cells (Jurkat) or cells transduced with lentivirus encoding either wild type (Wt) or S58A 14-3-3ζ-Myc with either an anti-14-3-3ζ specific antibody (upper panel) or an anti-pan 14-3-3 antibody (middle panel) to compare the expression level of transduced protein. Myc immunoprecipitates were also immunoblotted with an anti-phospho 14-3-3 binding site antibody (lower panel) to detect proteins associated with 14-3-3ζ-Myc. Endogenous 14-3-3 is indicated by an open arrow and exogenous 14-3-3ζ-Myc with a closed arrow. (B) Lysates from either wild type (Wt) or S58A 14-3-3ζ-Myc expressing Jutkat cells were subjected to in vitro PKA phosphorylation in the presence (+) or absence (−) of […] and the samples immunoblotted after SDS-PAGE separation With either anti-Myc antibody (upper panel), anti-14-3-3ζ antibody (middle panel) or anti-phospho Ser58 14-3-3ζ antibody (lower panel). (C) Serum-starved Jurkat cells were treated with 2 μM FTY720 for 4 h prior to staining with TMRE and NucView™. Forward- versus side-scatter plots (FS versus SS) show the viable cell populations for FTY720 and EtOH (vehicle) treated cells which are analysed in the lower histograms for caspase activity (NucView™) versus ΔΨM (TMRE). (D and E) Jurkat cell lines expressing either wild type or S58A 14-3-3ζ-Myc by lentiviral transduction were serum-starved for 2 h and treated with either 0.1% ethanol vehicle alone (EtOH), 2 μM dimethyl-sphingosine (DMS), or 2 μM FTY720. Cells were analysed by TMRE staining at 4 h (D) or at the time points indicated (E). (D) Representative analyses of TMRE staining with forward- versus side-scatter plots inset to show the similarity in cell populations. (E) Graphical representation of TMRE analysis over time with open symbols representing vehicle (0.1% EtOH) treated cells and closed symbols representing FTY720 treated cells. […]
FIG. 11. […] Effect of TMAs on Jurkat cells after 16 hours incubation assessed by ΔΨM (TMRE) and caspase 3 activity (NucView™) analysis. […] Forward-side-scatter histograms showing cell viability are inset and caspase 3 activity as assessed by NucView™ analysis of viable cells shown. E. Examples of TMA-derivatives of FTY720 that will be analysed for effects on 14-3-3 dimer stability and apoptosis.
Having confirmed appropriate expression and behaviour of Myc-tagged wild type and S58A 14-3-3ζ in the Jurkat lines, these cells were utilised in functional studies to determine the effect of S58A 14-3-3ζ expression on cell survival in response to sphingosine analogues. […] Intriguingly, Jurkat cells expressing S58A 14-3-3ζ-Myc consistently underwent commitment to apoptosis (as detected by the loss of TMRE staining) more slowly than those expressing wild type 14-3-3ζ-Myc (FIG. 8D).

The target of test [3] is T1, 14-3-3ζ D20N mutant (Homo sapiens, UniProt P63104, D20N).
T1 construct: made in house
T1 sequence (P63104 1-245 D20N): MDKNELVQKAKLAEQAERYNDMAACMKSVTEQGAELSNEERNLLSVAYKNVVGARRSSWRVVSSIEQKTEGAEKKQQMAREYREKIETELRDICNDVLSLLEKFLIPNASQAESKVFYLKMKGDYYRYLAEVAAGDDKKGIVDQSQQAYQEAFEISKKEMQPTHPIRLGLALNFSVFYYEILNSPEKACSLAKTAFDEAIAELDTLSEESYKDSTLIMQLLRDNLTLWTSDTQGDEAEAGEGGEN
Kind of test: Phosphorylation of D20N mutant 14-3-3ζ by PKA catalytic subunit with FTY720. In kind it is biochemical. The following applies: increasing concentrations of FTY720, FIG. 9C. An excerpt: FIG. 9 A depicts a side view of 14-3-3ζ in space filling representation indicating the orientation of view B. The monomer units (in green and orange) and interacting phospho-peptides, (in cyan) bound in the dual amphipathic grooves are shown. B. Bottom-up view of 14-3-3ζ with the location of S58 phosphorylation site (indicated by arrows and asterisk) and key surface acidic (in yellow) and basic (in blue) residues shown. C. In vitro phosphorylation of 14-3-3ζ wild type and mutants as indicated by catalytic PKA subunit in the presence of increasing concentrations of FTY720. […] D. Mutant 14-3-3 (as indicated) was analysed by native-PAGE and Coomassie staining. The arrow indicates the migration of dimeric 14-3-3 protein. E. A schematic representation of a 14-3-3 dimer showing the buried S58 phosphorylation site in pink, D20, the residue proposed to interact with sphingolipid in yellow and the predicted salt bridge interactions involved in dimerisation. F. & G. In silico docking of FTY720 (shown in cyan in F.) and sphingosine (in pink in G.) in 14-3-3ζ dimer interface.
The dimer interface of 14-3-3 proteins lies at the bottom of the phospho-serine binding groove and comprises a central hole of around 10 Å in diameter in which the Ser58 phosphorylation site is positioned (FIG. 9B, indicated by *). […]

Test [4] has as its target T2, 14-3-3ζ (Homo sapiens, UniProt P63104).
T2 construct: made in house
T2 sequence (P63104 1-245): T1 sequence (P63104 1-245 D20N) with N20D
The test can be described thus: 14-3-3 phosphorylation by PKA catalytic subunit (autoradiography). In kind it is biochemical. The following applies: increasing concentrations of FTY720, FIG. 9C.

Setting [5] is: 4 h, serum-starved Jurkat cells.

Substitutions are numbered along the chain they refer to.

As to `CCCCCCCCc1ccc(CCC(N)(CO)CO)cc1` [FTY720], the “phosphorylation of 14-3-3 isoforms by PKA catalytic subunit” value in test [1] was “behaved similarly to sphingosine and DMS in modulating 14-3-3 for phosphorylation”. Also, in test [2] (setting [5]), the “caspase-3 activity (NucView)” value is “activation of caspase-3” and the “commitment to apoptosis (loss in TMRE staining)” value is on record as “rapid commitment to apoptosis”. For the same molecule, the “commitment to apoptosis in S58A versus wild type 14-3-3ζ-Myc expressing cells (TMRE)” value in test [2] (Jurkat cells expressing S58A 14-3-3ζ-Myc) is listed as “delayed mitochondrial permeability transition”. Further, the “phosphorylatability of D20N 14-3-3ζ by PKA catalytic subunit” value in test [3] was “only weakly phosphorylatable”. Besides, the “phosphorylatability of wild-type 14-3-3ζ by PKA catalytic subunit” value in test [4] is on record as “increasing phosphorylatability”.
